Test results as given in paper PMC10254852, “Design, Synthesis and Anticancer Evaluation of Nitroimidazole Radiosensitisers” (Molecules, 2023).
Read-outs that look alike come from different tables or passages of the source.

Tests used:
HCT116/54C cells [1] = assay: In vitro radiosensitisation under anoxia, clonogenic survival; type: cell-based, human; conditions: compound 1 mM, radiation dose for 1% survival/radiation dose for 1% survival with compound, mean ± SEM
Method: Next, we evaluated in vitro radiosensitisation by using a representative subset of nitroimidazole compounds in HCT116/54C cells with a clonogenic survival endpoint. Radiosensitisation was determined by treating cells under anoxia with a range of radiation doses alone and with compounds at equimolar doses (1 mM). Sensitiser enhancement ratios (SER) were calculated as the ratio of radiation dose required for 1% clonogenic survival alone or with compound (Table 3).
Cells were seeded onto 96-well plates at 10^5 cells per well and allowed to attach for 2 h. […] The plates were irradiated (Eldorado 78 ^60Co teletherapy unit, ~2 Gy/min) with 15 Gy under anoxia at room temperature for SR experiments. A metal wedge placed on the top of the metal chamber was used to achieve a graduated radiation dose across the plate, varying from 7 to 29 Gy, calibrated by Fricke dosimetry with ammonium thiocyanate as previously described for SER experiments. The control plate (compound alone, no radiation) was left inside the anaerobic chamber at room temperature during the irradiation period. After treatment, the cells were trypsinized and suspended in usual media + 1% penicillin-streptomycin (ThermoFisher Scientific), and 10-fold serial dilutions were plated for clonogenic survival. After 10 days, plates were stained with methylene blue (2 g/L in EtOH/H2O, 1:1 v/v) and colonies with more than 50 cells were counted. The surviving fraction (SF) was determined as: SF = PE(irradiated)/PE(control) where the plating efficiency (PE) = (No. of colonies)/(No. of cells plated). SF was plotted against radiation dose. Survival ratios (SR) were calculated: SR = (cell survival with radiation)/(cell survival with drug + radiation). Sensitizer enhancement ratios (SER) were calculated: SER = (radiation dose for 1% survival without compound)/(radiation dose for 1% survival with compound).

[2] = system: HCT116/54C tumour xenografts; assay: Tumour growth inhibition in combination with radiation; type: in vivo, NIH-III mice; conditions: HCT116/54C tumours
Method: (§1) Specific pathogen-free six- to eight-week-old female NIH-III mice, bred in the Vernon Jansen Unit, University of Auckland, were used for animal experiments. Animals had ad libitum access to food and water and were maintained in microisolator cages on a 12 h light/dark cycle. All treatments were administered by i.v. injection at a dose of 2.2 mmol/kg and injection volume of 10 mL/kg. Compounds 2, 34 and 38 were administered as solutions in saline containing 1% DMSO or for 9–12 as solutions in saline containing 2 molar equivalents of NaHCO3. Control animals received an i.v. injection of saline at 10 mL/kg. All animal experiments were conducted under the auspices of the University of Auckland Animal Ethics Committee (approval 1781).
Compounds were evaluated for their ability to inhibit tumour growth in combination with a single dose of radiation (10 Gy) in HCT116/54C or UT-SCC-74B tumour xenografts on the backs of NIH-III mice. In addition, a fractionated radiation schedule (5 Gy on Days 1, 7 and 14) was explored in HCT116/54C tumour xenografts. Mice were randomly assigned to 4 treatment groups and treated with: (A) vehicle control, (B) 10 Gy RAD only, (C) sensitiser only, or (D) sensitiser given 10 min before 10 Gy RAD. Drugs were administered by i.v. injection at 2.2 mmol/kg either as a single dose or three doses on Days 1, 7 and 14 in the fractionated study. Treatment commenced when the average tumour size reached approximately 250 mm^3, and tumour size was measured until study endpoint. Mice were placed in a custom-built lead-shielded jig that allowed irradiation of the whole tumour but shielded the mouse from radiation. Survival analysis represented the time taken for tumours to increase in relative tumour volume by 4× from the start of treatment (RTV^4). The significance of differences in activity between the groups was assessed by log-rank with Holm–Sidak multiple comparison analysis.

HCT116/54C tumours = assay: Tumour radiosensitisation: ex vivo clonogenic assay; type: in vivo, NIH-III mice
Method: as §1
(§2) Compounds were evaluated for in vivo radiosensitisation of hypoxic cells in HCT116/54C and UT-SCC-74B human tumour xenografts using clonogenic survival as an endpoint, using previously report methods. Tumours were grown subcutaneously on the flanks of NIH-III mice by injecting 5 × 10^6 HCT116/54C cells or UT-SCC-74B cells. Once tumours reached a volume of approximately 250 mm^3, mice were randomly assigned to 4 treatment groups and treated with: (A) vehicle control, (B) 10 Gy RAD only, (C) sensitiser only, or (D) sensitiser given before 10 Gy RAD. Drugs were administered as a single i.v. dose at 2.2 mmol/kg. […] Tumours were excised 18 h after treatment, and tumour cells were dissociated enzymatically and plated to determine the number of surviving (clonogenic) cells per gram of tumour tissue. SF and SR were calculated as described above. Statistical significance of drug effects was tested using one-way ANOVA with Sidak tests for multiple comparisons vs. radiation alone (Table 5).

UT-SCC-74B tumours = assay: as above; type: in vivo, NIH-III mice
Method: as §1, §2

[3] = Tolerability at maximum achievable dose, i.v.; type: in vivo; conditions: i.v. injection, NIH-III mice
Source text: The most promising 2-nitroimidazole 34 and 5-nitroimidazole 38 compounds were selected for in vivo evaluation on the basis of solubility, in vitro cytotoxicity and radiosensitisation data. These compounds were both well tolerated by i.v. injection in NIH-III mice at their maximum achievable dose (MAD) of 2.2 mmol/kg. This MAD was also achieved for some of our earlier compounds, but only when we employed a phosphate prodrug strategy owing to their poor solubility. […] The Cmax and AUC exceeded that achieved for earlier phosphate prodrugs 9–12, but was less than 2. On this basis we advanced both morpholine analogues into in vivo radiosensitisation studies.
as §1

UT-SCC-74B cells = assay: In vitro cytotoxicity, 4 h exposure oxic/anoxic, 5-day regrowth, sulforhodamine B; type: cell-based, human; conditions: for IC50: Homo sapiens, 4 h exposure, mean ± SEM
Source text: (§3) This allowed derivation of hypoxia cytotoxicity ratios (HCR) as IC50(oxic)/IC50(anoxic) in an HCT116 subclone HCT116/54C and two HNSCC cell lines, FaDu and UT-SCC-74B (Table 2).
(§4) HCT116/54C is an HCT116 subline that originated from a mixed culture with UT-SCC-54C cells, which was supplied alongside UT-SCC-74B by Prof. Bradly Wouters (University Health Network, Toronto, ON, Canada). HCT116/54C and UT-SCC-74B cells were passaged in minimum essential media (MEM, ThermoFisher Scientific, Waltham, MA, USA) with 10% foetal calf serum (FCS, Moregate Biotech, Hamilton, New Zealand), 4.5 mg/mL D-glucose (Sigma-Aldrich, St. Louis, MO, USA) and 20 mM HEPES (Sigma-Aldrich). FaDu cells were sourced from American Type Culture Collection and cultured in αMEM (ThermoFisher Scientific) with 10% FCS. All cell lines were confirmed mycoplasma-free by PlasmoTest (InvivoGen, San Diego, CA, USA) and were derived from STR-authenticated cryopreserved stocks. Log-phase cells were seeded into 96-well plates at 800 cells/well for HCT116/54C and 1500 cells/well for FaDu. […] After drug washout, cells were grown and stained as for the oxic IC50 assays. The hypoxic cytotoxicity ratio HCR was determined as HCR = IC50(oxic)/IC50(anoxic).

HCT116/54C cells [4] = assay: as above; type: cell-based, human; conditions: HCT116/54C; for IC50: Homo sapiens, 4 h exposure, mean ± SEM, n = 3–4
Source text: as §3, §4

FaDu cells = assay: as above; type: cell-based; conditions: for IC50: Homo sapiens, 4 h exposure, mean ± SEM
Source text: as §3, §4

[5] = 2.2 mmol/kg i.v. 5 min prior to 10 Gy radiation, surviving fraction after radiation/surviving fraction after drug + radiation
[6] = 2.2 mmol/kg i.v. + 10 Gy, one-way ANOVA
[7] = 2.2 mmol/kg i.v., 10 Gy, mechanism experiment (Figure 3)
[8] = anoxic, n = 3–4, read-out: IC50 Anoxic
[9] = oxic, n = 3–4, read-out: IC50 Oxic

O=[N+]([O-])c1cncn1CS(=O)(=O)NCCN1CCOCC1 [Compound 38]
SER at 1 mM (HCT116/54C cells [1]): 1.39 ± 0.01
survival (time to RTV^4) vs radiation alone ([2]; fractionated radiation, p < 0.05): significantly increased survival compared to radiation alone
tumour growth delay with fractionated radiation ([2]; qw × 3, 5 Gy, 2.2 mmol/kg i.v.): delayed tumour growth relative to radiation alone
Sensitisation Ratio (HCT116/54C tumours; [5]): 3.43
enhancement of tumour killing of radiotherapy (RAD vs drug + RAD) (HCT116/54C tumours; [6]): significantly enhanced the tumour killing of radiotherapy
SR, drug given 5 min before radiation (HCT116/54C tumours; [7]): 8.26
SR, drug given 20 min after radiation (HCT116/54C tumours; [7]): 1.38
Sensitisation Ratio (UT-SCC-74B tumours; [5]): 11.5
enhancement of tumour cell killing by radiotherapy (RAD vs drug + RAD) (UT-SCC-74B tumours; [6]): significantly enhanced tumour cell killing by radiotherapy
maximum achievable dose (MAD), well tolerated [3]: 2.2 mmol/kg
IC50 (UT-SCC-74B cells; [8]): 1.5 ± 0.3 mM
IC50 (UT-SCC-74B cells; [9]): 13.1 ± 2.8 mM
HCR (UT-SCC-74B cells; IC50(oxic)/IC50(anoxic)): 8.6
HCR (HCT116/54C cells [4]; IC50(oxic)/IC50(anoxic)): 11.2
IC50 (HCT116/54C cells [4]; anoxic, read-out: IC50 Anoxic): 1.2 ± 0.1 mM
IC50 (HCT116/54C cells [4]; oxic, read-out: IC50 Oxic): 13.7 ± 2 mM
IC50 (FaDu cells; [8]): 1.8 ± 0.1 mM
IC50 (FaDu cells; [9]): 10.6 ± 0.6 mM
HCR (FaDu cells; IC50(oxic)/IC50(anoxic)): 5.8
